From ChEMBL document CHEMBL4257522, “Synthesis and preliminary anti-inflammatory and anti-bacterial evaluation of some diflunisal aza-analogs” (Medchemcomm, 2018)
Calls of active or inactive are those of the source. The calls are words filed in the database; no cut-off is given here.

How the values were obtained:
Staphylococcus aureus [1] = assay: Potentiation of erythromycin-induced antibacterial activity against Staphylococcus aureus ATCC 33592 assessed as minimum modulatory concentration up to 32 uM measured after 16 hrs in presence of MIC/4 erythromycin; type: functional; details: ATCC 33592, 16 h, read-out: MEC
Staphylococcus aureus [2] = assay: Potentiation of geneticin-induced antibacterial activity against Staphylococcus aureus ATCC 33592 assessed as minimum modulatory concentration up to 32 uM measured after 16 hrs in presence of MIC/4 geneticin; type: functional; details: ATCC 33592, 16 h, read-out: MEC
Escherichia coli [3] = assay: Potentiation of erythromycin-induced antibacterial activity against Escherichia coli ATCC 43894 assessed as minimum modulatory concentration up to 32 uM measured after 16 hrs in presence of MIC/4 erythromycin; type: functional; details: ATCC 43894, 16 h, read-out: MEC
Streptococcus pyogenes [4] = assay: Potentiation of geneticin-induced antibacterial activity against Streptococcus pyogenes ATCC 14289 assessed as minimum modulatory concentration up to 32 uM measured after 16 hrs in presence of MIC/4 geneticin; type: functional; details: ATCC 14289, 16 h, read-out: MEC
Macrophage cell line [5] = assay: Induction of IL-1beta production in human PBMC-differentiated macrophages after 24 hrs by ELISA; type: cell-based
Klebsiella pneumoniae [6] = assay: Potentiation of erythromycin-induced antibacterial activity against Klebsiella pneumoniae ATCC 13883 assessed as minimum modulatory concentration up to 32 uM measured after 16 hrs in presence of MIC/4 erythromycin; type: functional; details: ATCC 13883, 16 h, read-out: MEC
Macrophage cell line [7] = assay: Induction of prostaglandin production in human PBMC-differentiated macrophages after 24 hrs by ELISA; type: cell-based
Macrophage cell line [8] = assay: Antiinflammatory activity in human PBMC-differentiated macrophages assessed as inhibition of LPS-induced IL-8 production at 0.01 to 10 uM measured after 24 hrs by ELISA; type: functional, cell-based
Macrophage cell line [9] = assay: Induction of TNFalpha production in human PBMC-differentiated macrophages after 24 hrs by ELISA; type: cell-based
Pseudomonas aeruginosa [10] = assay: Potentiation of ciprofloxacin-induced antibacterial activity against Pseudomonas aeruginosa ATCC BAA-2108 assessed as minimum modulatory concentration up to 32 uM measured after 16 hrs in presence of MIC/4 ciprofloxacin; type: functional; details: ATCC BAA-2108, 16 h, read-out: MEC
Streptococcus pyogenes [11] = assay: Potentiation of tetracycline-induced antibacterial activity against Streptococcus pyogenes ATCC 14289 assessed as minimum modulatory concentration up to 32 uM measured after 16 hrs in presence of MIC/4 tetracycline; type: functional; details: ATCC 14289, 16 h, read-out: MEC
Enterococcus faecium [12] = assay: Potentiation of ciprofloxacin-induced antibacterial activity against Enterococcus faecium ATCC 700221 assessed as minimum modulatory concentration up to 32 uM measured after 16 hrs in presence of MIC/4 ciprofloxacin; type: functional; details: ATCC 700221, 16 h, read-out: MEC
Escherichia coli [13] = assay: Toxicity in Escherichia coli ATCC 43894 up to 32 uM measured after 16 hrs; type: organism-based
Staphylococcus aureus [14] = assay: Potentiation of tetracycline-induced antibacterial activity against Staphylococcus aureus ATCC 33592 assessed as minimum modulatory concentration up to 32 uM measured after 16 hrs in presence of MIC/4 tetracycline; type: functional; details: ATCC 33592, 16 h, read-out: MEC
Enterococcus faecium [15] = assay: Potentiation of geneticin-induced antibacterial activity against Enterococcus faecium ATCC 700221 assessed as minimum modulatory concentration up to 32 uM measured after 16 hrs in presence of MIC/4 geneticin; type: functional; details: ATCC 700221, 16 h, read-out: MEC
Staphylococcus aureus [16] = assay: Potentiation of ciprofloxacin-induced antibacterial activity against Staphylococcus aureus ATCC 33592 assessed as minimum modulatory concentration up to 32 uM measured after 16 hrs in presence of MIC/4 ciprofloxacin; type: functional; details: ATCC 33592, 16 h, read-out: MEC
Streptococcus pyogenes [17] = assay: Potentiation of erythromycin-induced antibacterial activity against Streptococcus pyogenes ATCC 14289 assessed as minimum modulatory concentration up to 32 uM measured after 16 hrs in presence of MIC/4 erythromycin; type: functional; details: ATCC 14289, 16 h, read-out: MEC
Pseudomonas aeruginosa [18] = assay: Potentiation of tetracycline-induced antibacterial activity against Pseudomonas aeruginosa ATCC BAA-2108 assessed as minimum modulatory concentration up to 32 uM measured after 16 hrs in presence of MIC/4 tetracycline; type: functional; details: ATCC BAA-2108, 16 h, read-out: MEC
Enterococcus faecium [19] = assay: Toxicity in Enterococcus faecium ATCC 700221 up to 32 uM measured after 16 hrs; type: organism-based; details: in vitro
Pseudomonas aeruginosa [20] = assay: Potentiation of erythromycin-induced antibacterial activity against Pseudomonas aeruginosa ATCC BAA-2108 assessed as minimum modulatory concentration up to 32 uM measured after 16 hrs in presence of MIC/4 erythromycin; type: functional; details: ATCC BAA-2108, 16 h, read-out: MEC
Enterococcus faecium [21] = assay: Potentiation of methicillin-induced antibacterial activity against Enterococcus faecium ATCC 700221 assessed as minimum modulatory concentration up to 32 uM measured after 16 hrs in presence of MIC/4 methicillin; type: functional; details: ATCC 700221, 16 h, read-out: MEC
Staphylococcus aureus [22] = assay: Potentiation of methicillin-induced antibacterial activity against Staphylococcus aureus ATCC 33592 assessed as minimum modulatory concentration up to 32 uM measured after 16 hrs in presence of MIC/4 methicillin; type: functional; details: ATCC 33592, 16 h, read-out: MEC
Streptococcus pyogenes [23] = assay: Potentiation of methicillin-induced antibacterial activity against Streptococcus pyogenes ATCC 14289 assessed as minimum modulatory concentration up to 32 uM measured after 16 hrs in presence of MIC/4 methicillin; type: functional; details: ATCC 14289, 16 h, read-out: MEC
Klebsiella pneumoniae [24] = assay: Toxicity in Klebsiella pneumoniae ATCC 13883 up to 32 uM measured after 16 hrs; type: organism-based
Macrophage cell line [25] = assay: Cytotoxicity against human PBMC-differentiated macrophages treated for 24 hrs followed by compound washout and measured after 48 hrs by MTT assay; type: cell-based
Staphylococcus aureus [26] = assay: Toxicity in Staphylococcus aureus ATCC 33592 up to 32 uM measured after 16 hrs; type: organism-based
Streptococcus pyogenes [27] = assay: Potentiation of ciprofloxacin-induced antibacterial activity against Streptococcus pyogenes ATCC 14289 assessed as minimum modulatory concentration up to 32 uM measured after 16 hrs in presence of MIC/4 ciprofloxacin; type: functional; details: ATCC 14289, 16 h, read-out: MEC
Enterococcus faecium [28] = assay: Potentiation of tetracycline-induced antibacterial activity against Enterococcus faecium ATCC 700221 assessed as minimum modulatory concentration up to 32 uM measured after 16 hrs in presence of MIC/4 tetracycline; type: functional; details: ATCC 700221, 16 h, read-out: MEC
Klebsiella pneumoniae [29] = assay: Potentiation of geneticin-induced antibacterial activity against Klebsiella pneumoniae ATCC 13883 assessed as minimum modulatory concentration up to 32 uM measured after 16 hrs in presence of MIC/4 geneticin; type: functional; details: ATCC 13883, 16 h, read-out: MEC
Escherichia coli [30] = assay: Potentiation of geneticin-induced antibacterial activity against Escherichia coli ATCC 43894 assessed as minimum modulatory concentration up to 32 uM measured after 16 hrs in presence of MIC/4 geneticin; type: functional; details: ATCC 43894, 16 h, read-out: MEC
Klebsiella pneumoniae [31] = assay: Potentiation of methicillin-induced antibacterial activity against Klebsiella pneumoniae ATCC 13883 assessed as minimum modulatory concentration up to 32 uM measured after 16 hrs in presence of MIC/4 methicillin; type: functional; details: ATCC 13883, 16 h, read-out: MEC
Escherichia coli [32] = assay: Potentiation of ciprofloxacin-induced antibacterial activity against Escherichia coli ATCC 43894 assessed as minimum modulatory concentration up to 32 uM measured after 16 hrs in presence of MIC/4 ciprofloxacin; type: functional; details: ATCC 43894, 16 h, read-out: MEC
Enterococcus faecium [33] = assay: Potentiation of erythromycin-induced antibacterial activity against Enterococcus faecium ATCC 700221 assessed as minimum modulatory concentration up to 32 uM measured after 16 hrs in presence of MIC/4 erythromycin; type: functional; details: ATCC 700221, 16 h, read-out: MEC
Pseudomonas aeruginosa [34] = assay: Toxicity in Pseudomonas aeruginosa ATCC BAA-2108 up to 32 uM measured after 16 hrs; type: organism-based; details: in vitro

Structure (SMILES)	minimal effective concentration (Staphylococcus aureus [1]) [µM]	minimal effective concentration (Staphylococcus aureus [2]) [µM]	minimal effective concentration (Escherichia coli [3]) [µM]	minimal effective concentration (Streptococcus pyogenes [4]) [µM]	Activity (Macrophage cell line [5])	minimal effective concentration (Klebsiella pneumoniae [6]) [µM]	Activity (Macrophage cell line [7])	inhibition (Macrophage cell line [8])	Activity (Macrophage cell line [9])	minimal effective concentration (Pseudomonas aeruginosa [10]) [µM]	minimal effective concentration (Streptococcus pyogenes [11]) [µM]	minimal effective concentration (Enterococcus faecium [12]) [µM]	Activity (Escherichia coli [13])	minimal effective concentration (Staphylococcus aureus [14]) [µM]	minimal effective concentration (Enterococcus faecium [15]) [µM]	minimal effective concentration (Staphylococcus aureus [16]) [µM]	minimal effective concentration (Streptococcus pyogenes [17]) [µM]	minimal effective concentration (Pseudomonas aeruginosa [18]) [µM]	Activity (Enterococcus faecium [19])	minimal effective concentration (Pseudomonas aeruginosa [20]) [µM]	also measured
O=C(O)c1cc(-c2ccccc2)nc(-c2ccccc2)c1O	2	8	> 32	4	Non-Toxic	> 32	Non-Toxic	inactive	Non-Toxic	8	8	> 32	Non-Toxic	2	8	16	4	> 32	Non-Toxic	8	minimal effective concentration (Enterococcus faecium [21]): 2 µM; minimal effective concentration (Staphylococcus aureus [22]): 4 µM; minimal effective concentration (Streptococcus pyogenes [23]): 2 µM; Activity (Klebsiella pneumoniae [24]): Non-Toxic; IC50 (Macrophage cell line [25]): 81.2 µM; Activity (Staphylococcus aureus [26]): Non-Toxic; minimal effective concentration (Streptococcus pyogenes [27]): > 32 µM; minimal effective concentration (Enterococcus faecium [28]): 2 µM; minimal effective concentration (Klebsiella pneumoniae [29]): > 32 µM; minimal effective concentration (Escherichia coli [30]): > 32 µM; minimal effective concentration (Klebsiella pneumoniae [31]): > 32 µM; minimal effective concentration (Escherichia coli [32]): > 32 µM; minimal effective concentration (Enterococcus faecium [33]): 2 µM; Activity (Pseudomonas aeruginosa [34]): Non-Toxic
Cc1cc(C(=O)O)c(O)c(Cc2ccccc2)n1	> 32	> 32	> 32	> 32	Non-Toxic	> 32	Non-Toxic	inactive	Non-Toxic	> 32	16	> 32	Non-Toxic	> 32	> 32	> 32	> 32	> 32	Non-Toxic	> 32	minimal effective concentration (Enterococcus faecium [21]): > 32 µM; minimal effective concentration (Staphylococcus aureus [22]): > 32 µM; minimal effective concentration (Streptococcus pyogenes [23]): > 32 µM; Activity (Klebsiella pneumoniae [24]): Non-Toxic; IC50 (Macrophage cell line [25]): > 100 µM; Activity (Staphylococcus aureus [26]): Non-Toxic; minimal effective concentration (Streptococcus pyogenes [27]): > 32 µM; minimal effective concentration (Enterococcus faecium [28]): > 32 µM; minimal effective concentration (Klebsiella pneumoniae [29]): > 32 µM; minimal effective concentration (Escherichia coli [30]): > 32 µM; minimal effective concentration (Klebsiella pneumoniae [31]): > 32 µM; minimal effective concentration (Escherichia coli [32]): > 32 µM; minimal effective concentration (Enterococcus faecium [33]): > 32 µM; Activity (Pseudomonas aeruginosa [34]): Non-Toxic
